Assay results reported in article PMC8129988 (Inorganic Chemistry Frontiers, 2021).

Tests used:
[1] = tested on: p-ERK1/2 and p-S6 in K-562 cells; experiment: western blot of downstream signalling, 12 h; type: cell-based, human; details: hypoxic conditions, K-562, 12 h
Protocol: Fig. 10 Impact of the cobalt(III) complexes on the ERK1/2 and S6 under normoxic and hypoxic conditions. K-562 cells were treated with the compounds, after 12 h cell lysates were prepared and protein expression as well as phosphorylation levels of downstream pathways (p-ERK1/2 and p-S6) analyzed by western blotting. One representative experiment out of three is shown. The ratio of phosphorylated to total protein is given between the respective lanes.
K-562 cells were plated (5 × 10^5 cells per well) in 6-well plates and allowed to recover for 24 h. Subsequently, the cells were treated with the drugs in different concentrations. After 12 h cells were harvested, proteins were isolated, resolved by sodium dodecyl sulfate polyacrylamide gel electrophoresis (SDS/PAGE), and transferred onto a polyvinylidene difluoride membrane for western blotting. The following antibodies were used: ERK1/2 (p44/42) rabbit monoclonal antibody (mAb) (137F5, #4695), phospho-ERK1/2 rabbit mAb (Thr202/Tyr204) (20G11, #4376), phospho-S6 rabbit pAb (Ser240/244, #2215) (Cell Signaling Technology, Beverly, MA, USA), S6 mouse mAb (C-8. #sc-74459) (Santa Cruz Biotechnology, TX, USA) and β-actin mouse mAb (#A5441, Sigma). All primary antibodies were used in 1 : 1000 dilutions (in Tris-buffered saline containing 0.1% Tween20 (TBST) + 3% bovine serum albumin (BSA)). Secondary goat anti-mouse-IgG (Fc specific)-peroxidase antibody (#A0168, Sigma) and horseradish peroxidase(HRP)-labeled mouse anti-rabbit IgG (#sc-2357, Santa Cruz Biotechnology) were used at working dilutions of 1 : 10 000 (in TBST + 1% BSA).

UM-UC-14 cells = experiment: ligand release by UV fluorescence microscopy; type: cell-based, human; details: 10 μM, 24 h, UM-UC-14, fluorescence microscopy
Protocol: The enhanced stability of Co(acac)2LPon under normoxia and its hypoxia-induced ligand release was subsequently confirmed by fluorescence microscopy. Fluorescence intensities indicated a ∼2.8-fold decreased stability of the cobalt(III) complex under hypoxic vs. normoxic cell culture conditions.
UM-UC-14 cells were seeded (2.5 × 10^5 cells per well) in 12-well plates and after 24 h recovery treated with 10 μM of compounds. After 24 h incubation, the drug solutions were removed, cells were washed with PBS and microphotographs of the different treatments were taken using UV fluorescence microscopy (Nikon Eclipse Ti2 microscope with a DAPI filter and a high-pressure mercury lamp) and a 20× objective. The level of cellular fluorescence was determined from fluorescence microscopy images using ImageJ software.
Figure S9: Ligand release of Co(acac)2LPon under normoxic and hypoxic cell culture conditions in comparison to LPon using UV fluorescence microscopy. UM-UC-14 cells were incubated with 10 µM of compounds for 24 h. Images of the different treatments were taken by UV fluorescence microcopy (20X objective) and the corrected total cell fluorescence was evaluated using ImageJ software. Data in Figure S9B are given as means ± SD of ten analyzed microphotographs per compound. Statistical significance was calculated by unpaired t test with p < .05(*). […]

SMILES: CC(=O)C=C(C)[O-].CC(=O)C=C(C)[O-].Cc1ccc(C(=O)Nc2ccc(CNCCN)c(C(F)(F)F)c2)cc1C#Cc1cnc2cccnn12.O=C(O)C(F)(F)F.[Co+3] [Co(acac)2LPon, Bis(2,4-pentanedionato)N-(4-(((2-aminoethyl)amino)methyl)-3-(trifluoromethyl)phenyl)-3-(imidazo[1,2-b]pyridazin-3-ylethynyl)-4-methylbenzamide cobalt(III) 2,2,2-trifluoroacetate]
- activity on S6 phosphorylation compared with ponatinib [1]: equally active as compared to ponatinib
- fluorescence intensity change (decreased stability) hypoxic vs. normoxic (UM-UC-14 cells): ~2.8 fold
